We go through 47 molecules from US12428415B2, “Matriptase 2 inhibitors and uses thereof” (Disc Medicine, Inc., priority 2018, dated 2025).

Like-named read-outs stand apart in the source and are kept apart here.

The assay deals with T1, Human Recombinant Matriptase 2 (Homo sapiens, UniProt Q8IU80).
T1 construct: purchased Enzo Life Sciences (an in-house preparation was also used) ALX-201-752-1
T1 sequence (Q8IU80 1-811): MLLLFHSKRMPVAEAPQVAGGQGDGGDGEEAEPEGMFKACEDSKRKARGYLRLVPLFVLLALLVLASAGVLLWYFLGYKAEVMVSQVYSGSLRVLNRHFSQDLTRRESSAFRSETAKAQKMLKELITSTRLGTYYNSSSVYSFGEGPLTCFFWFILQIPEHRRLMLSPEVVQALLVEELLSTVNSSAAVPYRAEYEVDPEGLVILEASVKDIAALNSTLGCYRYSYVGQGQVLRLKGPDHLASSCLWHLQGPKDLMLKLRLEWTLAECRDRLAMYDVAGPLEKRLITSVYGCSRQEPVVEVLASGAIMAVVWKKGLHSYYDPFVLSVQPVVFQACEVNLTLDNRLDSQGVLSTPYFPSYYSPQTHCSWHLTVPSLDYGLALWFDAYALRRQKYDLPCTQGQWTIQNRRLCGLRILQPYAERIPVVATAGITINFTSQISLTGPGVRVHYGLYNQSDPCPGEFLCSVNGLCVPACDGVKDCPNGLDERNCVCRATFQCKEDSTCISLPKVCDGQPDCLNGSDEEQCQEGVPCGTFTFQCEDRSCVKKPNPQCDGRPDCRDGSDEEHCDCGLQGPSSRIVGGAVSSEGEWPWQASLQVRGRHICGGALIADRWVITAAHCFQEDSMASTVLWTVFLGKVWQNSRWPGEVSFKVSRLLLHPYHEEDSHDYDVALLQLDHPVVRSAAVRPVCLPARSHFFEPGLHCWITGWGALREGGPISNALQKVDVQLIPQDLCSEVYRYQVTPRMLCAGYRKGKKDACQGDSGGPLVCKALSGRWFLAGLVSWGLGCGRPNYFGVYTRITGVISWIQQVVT
The assay is described as follows: Matriptase 2 fluorescence based inhibition assay, Method A (100 mM TRIS pH 9, 1 mg/mL BSA). In kind it is biochemical. The following applies: read-out: Mar-2 % inhibition at 1 uM. In short, it runs like this: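 At 25° C in 100 mM TRIS pH 9 with 1 mg/mL BSA and 1% DMSO, compounds were preincubated 30 min with 7 nM commercial or 15 nM in-house protein before adding 100 μM Boc-Gln-Ala-Arg-7-amido-4-methyl coumarin. Fluorescence at 360/480 nm after 60 min; single points at 1 and 10 μM, IC50 by variable-slope nonlinear regression.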

As a reminder, the inhibition is the share of the control response that was lost under treatment. In the case of `N=C(N)c1ccc2cc(C(=O)Nc3cccc(-n4cc(C(F)(F)F)cn4)c3)n(Cc3ccc(C(N)=O)cc3)c2c1` [Compound I-165], the inhibition at 1 µM (1 uM, Assay Used A) was 0 to 25%. Same read-out and setting: the value for `N=C(N)c1ccc2cc(C(=O)Nc3cccc(-n4ccc(C(F)(F)F)n4)c3)n(Cc3ccc(C(N)=O)cc3)c2c1` [Compound I-166] was 0 to 25%; that for `N=C(N)c1ccc2cc(C(=O)NCc3ccncc3)n(Cc3ccc(C(N)=O)cc3)c2c1` [Compound I-168] was 25 to 50%; that for `N=C(N)c1ccc2cc(C(=O)Nc3cc(F)ccn3)n(Cc3ccc(C(N)=O)cc3)c2c1` [Compound I-169] was 0 to 25%. Still for that read-out and setting: the value for `N=C(N)c1ccc2cc(C(=O)Nc3cccnc3)n(Cc3ccc(C(N)=O)cc3)c2c1` [Compound I-170] was 0 to 25%; that for `Cc1ccc(NC(=O)c2cc3ccc(C(=N)N)cc3n2Cc2ccc(C(N)=O)cc2)nc1` [Compound I-171] was 0 to 25%; that for `N=C(N)c1ccc2cc(C(=O)Nc3cncc(F)c3)n(Cc3ccc(C(N)=O)cc3)c2c1` [Compound I-172] was 0 to 25%. As for `N=C(N)c1ccc2cc(C(=O)Nc3ccc(F)nc3)n(Cc3ccc(C(N)=O)cc3)c2c1` [Compound I-173], the inhibition at 1 µM (1 uM, Assay Used A) is 0 to 25%. As to `N=C(N)c1ccc2cc(C(=O)Nc3ccc(Cl)nc3)n(Cc3ccc(C(N)=O)cc3)c2c1` [Compound I-174], the inhibition at 1 µM (1 uM, Assay Used A) lay in the range of 0 to 25%. As to `Cc1cncc(NC(=O)c2cc3ccc(C(=N)N)cc3n2Cc2ccc(C(N)=O)cc2)c1` [Compound I-175], where the note is “1 uM, Assay Used A”, the inhibition at 1 µM was in the range of 25 to 50%. Same read-out and setting: next, `Cc1ccnc(NC(=O)c2cc3ccc(C(=N)N)cc3n2Cc2ccc(C(N)=O)cc2)c1` [Compound I-176]: 0 to 25%; `N=C(N)c1ccc2cc(C(=O)Nc3ccc(N4CCCC4)nc3)n(Cc3ccc(C(N)=O)cc3)c2c1` [Compound I-177]: 0 to 25%. Turning to `N=C(N)c1ccc2cc(C(=O)Nc3ccnc(N4CCCC4)c3)n(Cc3ccc(C(N)=O)cc3)c2c1` [Compound I-178], the inhibition at 1 µM (1 uM, Assay Used A) fell in the range of 0 to 25%. Same read-out and setting: next, `N=C(N)c1ccc2cc(C(=O)Nc3cc(N4CCCC4)ccn3)n(Cc3ccc(C(N)=O)cc3)c2c1` [Compound I-179]: 0 to 25%. For the molecule `N=C(N)c1ccc2cc(C(=O)Nc3cccc(N4CCCC4)n3)n(Cc3ccc(C(N)=O)cc3)c2c1` [Compound I-180], the inhibition at 1 µM (1 uM, Assay Used A) lay in the range of 25 to 50%. On the same count and under the same terms, next, `N=C(N)c1ccc2cc(C(=O)Nc3cccc(-n4cccn4)n3)n(Cc3ccc(C(N)=O)cc3)c2c1` [Compound I-181]: 0 to 25%; `CCOC(=O)NC(=N)c1ccc2cc(C(=O)Nc3cccc(N4CCCC4)n3)n(Cc3ccc(C(N)=O)cc3)c2c1` [Compound I-183, Ethyl ((1-(4-carbamoylbenzyl)-2-((6-(pyrrolidin-1-yl)pyridin-2-yl)carbamoyl)-1H-indol-6-yl)(imino)methyl)carbamate]: 0 to 25%; `N=C(N)c1ccc2cc(C(=O)N[C@H]3CC[C@H](N)CC3)n(Cc3ccc(C(N)=O)cc3)c2c1` [Compound I-184]: 25 to 50%. On to `CC1CCC(NC(=O)c2cc3ccc(C(=N)N)cc3n2Cc2ccc(C(N)=O)cc2)CC1` (centres unmarked) [Compound I-185], for which the inhibition at 1 µM (1 uM, Assay Used A) lay in the range of 0 to 25%. Same read-out and setting: next, `C[C@H]1CC[C@H](NC(=O)c2cc3ccc(C(=N)N)cc3n2Cc2ccc(C(N)=O)cc2)CC1` [Compound I-186]: 0 to 25%; `N=C(N)c1ccc2cc(C(=O)NC3CCC(N4CCCC4)CC3)n(Cc3ccc(C(N)=O)cc3)c2c1` (centres unmarked) [Compound I-188]: 25 to 50%; `N=C(N)c1ccc2cc(C(=O)N[C@@H]3CC=CCC3)n(Cc3ccc(C(N)=O)cc3)c2c1` [Compound I-189]: 0 to 25%. The same measure, in the same setting: the value for `N=C(N)c1ccc2cc(C(=O)NC3CCC(F)(F)CC3)n(Cc3ccc(C(N)=O)cc3)c2c1` [Compound I-190] was 0 to 25%; that for `N=C(N)c1ccc2cc(C(=O)NCC3CCCCC3)n(Cc3ccc(C(N)=O)cc3)c2c1` [Compound I-191] was 0 to 25%; that for `N=C(N)c1ccc2cc(C(=O)NCC3CCOCC3)n(Cc3ccc(C(N)=O)cc3)c2c1` [Compound I-192] was 0 to 25%.

In the case of `C[C@H](NC(=O)c1cc2ccc(C(=N)N)cc2n1Cc1ccc(C(N)=O)cc1)C1CCCCC1` [Compound I-193], the inhibition at 1 µM (1 uM, Assay Used A) is 0 to 25%.

Take `C[C@@H](NC(=O)c1cc2ccc(C(=N)N)cc2n1Cc1ccc(C(N)=O)cc1)C1CCCCC1` [Compound I-194]: the inhibition at 1 µM (1 uM, Assay Used A) lay in the range of 0 to 25%. Same read-out and setting: the value for `N=C(N)c1ccc2cc(C(=O)NCCC3CCCCC3)n(Cc3ccc(C(N)=O)cc3)c2c1` [Compound I-195] was 0 to 25%. For `CC(C)N1CC[C@H](NC(=O)c2cc3ccc(C(=N)N)cc3n2Cc2ccc(C(N)=O)cc2)C1` [Compound I-196], the inhibition at 1 µM (1 uM, Assay Used A) was in the range of 0 to 25%. As to `N=C(N)c1ccc2cc(C(=O)NC34CC5CC(CC(O)(C5)C3)C4)n(Cc3ccc(C(N)=O)cc3)c2c1` [Compound I-197], the inhibition at 1 µM (at 1 uM, Assay Used = A) was in the range of 0 to 25%. As for `N=C(N)c1ccc2cc(C(=O)N[C@]34CC5CC(C[C@@](O)(C5)C3)C4)n(Cc3ccc(C(N)=O)cc3)c2c1` [Compound I-198], the inhibition at 1 µM (at 1 uM, Assay Used = A) fell in the range of 0 to 25%. Same read-out and setting: the value for `N=C(N)c1ccc2cc(C(=O)NC34CC5CC(CC(C5)C3)C4)n(Cc3ccc(C(N)=O)cc3)c2c1` [Compound I-200] was 0 to 25%; that for `N=C(N)c1ccc2cc(C(=O)NC3Cc4ccccc4C3)n(Cc3ccc(C(N)=O)cc3)c2c1` [Compound I-201] was 0 to 25%; that for `N=C(N)c1ccc2cc(C(=O)N[C@H]3CCc4ccccc43)n(Cc3ccc(C(N)=O)cc3)c2c1` [Compound I-202] was 0 to 25%. As to `N=C(N)c1ccc2cc(C(=O)N[C@@H]3c4ccccc4C[C@H]3O)n(Cc3ccc(C(N)=O)cc3)c2c1` [Compound I-203], the inhibition at 1 µM (at 1 uM, Assay Used = A) lay within 0 to 25%. Take `N=C(N)c1ccc2cc(C(=O)N[C@H]3c4ccccc4C[C@H]3O)n(Cc3ccc(C(N)=O)cc3)c2c1` [Compound I-204]: the inhibition at 1 µM (at 1 uM, Assay Used = A) lay in the range of 0 to 25%. Regarding `N=C(N)c1ccc2cc(C(=O)N[C@H]3CCNC3)n(Cc3ccc(C(N)=O)cc3)c2c1` [Compound I-205], the inhibition at 1 µM (at 1 uM, Assay Used = A) lay within 25 to 50%. The same measure, in the same setting: the value for `CN1CCC(NC(=O)c2cc3ccc(C(=N)N)cc3n2Cc2ccc(C(N)=O)cc2)CC1` [Compound I-206] was 25 to 50%. Consider `C[C@@H](O)CNC(=O)c1cc2ccc(C(=N)N)cc2n1Cc1ccc(C(N)=O)cc1` [Compound I-207], for which, where the note is “at 1 uM, Assay Used = A”, the inhibition at 1 µM is 0 to 25%.

`CC(C)(O)CNC(=O)c1cc2ccc(C(=N)N)cc2n1Cc1ccc(C(N)=O)cc1` [Compound I-208]: where the note is “at 1 uM, Assay Used = A”, the inhibition at 1 µM is 0 to 25%.

Consider `CC[C@@H](CO)NC(=O)c1cc2ccc(C(=N)N)cc2n1Cc1ccc(C(N)=O)cc1` [Compound I-209], for which the inhibition at 1 µM (at 1 uM, Assay Used = A) was in the range of 0 to 25%.

On to `N=C(N)c1ccc2c(O)c(C(=O)NCC3CCCCC3)n(Cc3ccc(C(N)=O)cc3)c2c1` [Compound I-212, 6-Carbamimidoyl-1-(4-carbamoylbenzyl)-N-(cyclohexylmethyl)-3-hydroxy-1H-indole-2-carboxamide], for which the inhibition at 1 µM (at 1 uM, Assay Used = A) lay in the range of 0 to 25%. `N=C(N)c1ccc2c(Cl)c(C(=O)NCC3CCCCC3)n(Cc3ccc(C(N)=O)cc3)c2c1` [Compound I-213, 6-Carbamimidoyl-1-(4-carbamoylbenzyl)-3-chloro-N-(cyclohexylmethyl)-1H-indole-2-carboxamide]: the inhibition at 1 µM (at 1 uM, Assay Used = A) lay in the range of 0 to 25%. In the case of `CC1CCC(NC(=O)c2c(Cl)c3ccc(C(=N)N)cc3n2Cc2ccc(C(N)=O)cc2)CC1` (centres unmarked) [Compound I-214], the inhibition at 1 µM (at 1 uM, Assay Used = A) is 0 to 25%. The same measure, in the same setting: the value for `CNC(=O)c1ccc(Cn2c(C(=O)NCC3CCCCC3)cc3ccc(C(=N)N)cc32)cc1` [Compound I-215, 6-Carbamimidoyl-N-(cyclohexylmethyl)-1-(4-(methylcarbamoyl)benzyl)-1H-indole-2-carboxamide] was 0 to 25%. As to `CN(C)C(=O)c1ccc(Cn2c(C(=O)NCC3CCCCC3)cc3ccc(C(=N)N)cc32)cc1` [Compound I-216, 6-Carbamimidoyl-N-(cyclohexylmethyl)-1-(4-(dimethylcarbamoyl)benzyl)-1H-indole-2-carboxamide], the inhibition at 1 µM (at 1 uM, Assay Used = A) was in the range of 0 to 25%. On the same count and under the same terms, the value for `N=C(N)c1ccc2cc(C(=O)NCC3CCCCC3)n(Cc3ccc(C(=O)NC4CC4)cc3)c2c1` [Compound I-217, 6-Carbamimidoyl-N-(cyclohexylmethyl)-1-(4-(cyclopropylcarbamoyl)benzyl)-1H-indole-2-carboxamide] was 0 to 25%.
